Reference: PMC4923880, “Urbilaterian origin of paralogous GnRH and corazonin neuropeptide signalling pathways” (Scientific Reports, 2016)
Square brackets hold non-standard residues; d marks the D form. Ends that are not written are not given here. Peptide text beside a SMILES is read from it. pGlu = O=C1CC[C@@H](C(=O)O)N1

Columns and labels:
[1] = tested on: cells transfected with an empty vector; assay: Bioluminescence assay, cells transfected with an empty vector (control); format: cell-based, Chinese hamster; settings: data not shown
From the text: ArGnRHR and ArCRZR were cloned as described previously[23] and the positions of the primers used are indicated in Supplementary Figures S1 and S2. Next, the ORF of ArGnRHR was amplified using the oligos 5′-aagcttCACCATGGCGACTACATC-3′ and 5′-ctcgagTTATACACATTTCTCAG-3′ and subcloned into the eukaryotic expression vector pcDNA 3.1+ (Invitrogen) that was cut with HindIII and XhoI; The ORF of ArCRZR was amplified using the oligos 5′- gatatcCACCATGAGTGTTCAAT-3′ and 5′-tctagaTCAGGTTGTTGTTGTGA-3′ and subcloned into pcDNA 3.1+ that was cut with EcoRV and XbaI. A partial Kozak translation initiation sequence (CACC) was also introduced in the upstream primer. […] The A. rubens neuropeptides pQIHYKNPGWGPG-NH2 and HNTFTMGGQNRWKAG-NH2 were custom synthesized by PPR Ltd (Fareham, UK) and were tested as candidate ligands for ArGnRHR and ArCRZR at concentrations ranging from 10^−4 M to 10^−14 M. Ca^2+ responses were normalized to the total Ca^2+ response monitored after addition of Triton X-100 (0.1%). Dose–response data were determined as a % of the highest response (100% activation). EC50 values were calculated from dose–response curves based on at least three independent transfections (Prism 6.0). […]

ArCRZR = ArCRZR (Asterias rubens, UniProt A0A1B0YGT7); assay: Bioluminescence (Ca2+) receptor activation assay, ArCRZR in CHO-K1 cells with aequorin and Gα16; format: cell-based; settings: for activation of ArCRZR by other GnRH/CRZ-type or starfish neuropeptides (in words): 10 μM, Supplementary Figure S8
From the text: (§1) ArGnRHR and ArCRZR were cloned as described previously[23] and the positions of the primers used are indicated in Supplementary Figures S1 and S2. Next, the ORF of ArGnRHR was amplified using the oligos 5′-aagcttCACCATGGCGACTACATC-3′ and 5′-ctcgagTTATACACATTTCTCAG-3′ and subcloned into the eukaryotic expression vector pcDNA 3.1+ (Invitrogen) that was cut with HindIII and XhoI; The ORF of ArCRZR was amplified using the oligos 5′- gatatcCACCATGAGTGTTCAAT-3′ and 5′-tctagaTCAGGTTGTTGTTGTGA-3′ and subcloned into pcDNA 3.1+ that was cut with EcoRV and XbaI. A partial Kozak translation initiation sequence (CACC) was also introduced in the upstream primer. Chinese hamster ovary (CHO)-K1 cells stably overexpressing the human Gα16 protein and mitochondrial targeted apo-aequorin were used as a heterologous expression system to functionally characterize the receptors. Cells were cultured, transfected and a bioluminescence assay performed as described previously. The A. rubens neuropeptides pQIHYKNPGWGPG-NH2 and HNTFTMGGQNRWKAG-NH2 were custom synthesized by PPR Ltd (Fareham, UK) and were tested as candidate ligands for ArGnRHR and ArCRZR at concentrations ranging from 10^−4 M to 10^−14 M. Ca^2+ responses were normalized to the total Ca^2+ response monitored after addition of Triton X-100 (0.1%). Dose–response data were determined as a % of the highest response (100% activation). EC50 values were calculated from dose–response curves based on at least three independent transfections (Prism 6.0). Other GnRH/CRZ-type neuropeptides ([…] and […]) and other starfish neuropeptides (NGFFYamide, SALMFamide-1 and SALMFamide-2[16][24]) were also tested (at 10 μM) to assess the specificity of receptor activation.

ArGnRHR = ArGnRHR (Asterias rubens, UniProt A0A1B0YGS0); assay: Bioluminescence (Ca2+) receptor activation assay, ArGnRHR in CHO-K1 cells with aequorin and Gα16; format: cell-based; settings: for activation of ArGnRHR (bioluminescence response, in words) / activation of ArGnRHR by other GnRH/CRZ-type or starfish neuropeptides (in words): CHO-K1/aequorin/Gα16 cells; for activation of ArGnRHR (bioluminescence response, in words): concentrations 10^−4 M to 10^−14 M, peptide 2 over the same concentration range as peptide 1; for activation of ArGnRHR by other GnRH/CRZ-type or starfish neuropeptides (in words): 10 μM, Supplementary Figure S8
From the text: as §1

GnRH-type receptors = settings: two GnRH-type receptors; ref [14]; cited from earlier work
From the text: (§2) It is not known, however, if this predicted mature peptide actually exists in B. floridae. […] Thus, it remains to be established whether or not distinct GnRH-type and CRZ-type signalling pa ...

CRZ-type receptor = settings: one of two CRZ-type receptors; ref [14]; cited from earlier work
From the text: as §2

ArGnRHR, sequence (A0A1B0YGS0 entry or part of it): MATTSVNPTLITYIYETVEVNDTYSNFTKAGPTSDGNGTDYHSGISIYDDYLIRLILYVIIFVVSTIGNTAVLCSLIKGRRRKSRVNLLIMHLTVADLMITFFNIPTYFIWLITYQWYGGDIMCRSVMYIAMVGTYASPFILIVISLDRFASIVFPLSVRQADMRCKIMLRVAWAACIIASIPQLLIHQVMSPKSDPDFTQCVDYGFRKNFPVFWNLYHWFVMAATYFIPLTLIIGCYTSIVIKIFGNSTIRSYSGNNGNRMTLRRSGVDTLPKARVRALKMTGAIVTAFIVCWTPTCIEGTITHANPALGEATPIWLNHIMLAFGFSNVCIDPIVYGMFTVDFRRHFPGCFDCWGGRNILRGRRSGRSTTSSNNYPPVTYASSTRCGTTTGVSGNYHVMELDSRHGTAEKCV
ArCRZR, sequence (A0A1B0YGT7 entry or part of it): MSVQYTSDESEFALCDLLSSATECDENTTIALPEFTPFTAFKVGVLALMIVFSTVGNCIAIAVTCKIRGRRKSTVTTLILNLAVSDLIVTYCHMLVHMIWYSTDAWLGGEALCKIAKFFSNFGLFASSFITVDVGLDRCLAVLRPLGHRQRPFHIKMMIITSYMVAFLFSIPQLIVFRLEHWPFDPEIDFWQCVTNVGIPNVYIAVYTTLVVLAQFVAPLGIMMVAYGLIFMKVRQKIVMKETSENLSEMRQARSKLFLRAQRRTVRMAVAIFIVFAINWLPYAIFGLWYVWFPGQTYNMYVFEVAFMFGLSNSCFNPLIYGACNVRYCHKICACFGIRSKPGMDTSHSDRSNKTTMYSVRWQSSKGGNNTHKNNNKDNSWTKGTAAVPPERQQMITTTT

CC[C@H](C)[C@H](NC(=O)[C@@H]1CCC(=O)N1)C(=O)N[C@@H](Cc1c[nH]cn1)C(=O)N[C@@H](Cc1ccc(O)cc1)C(=O)N[C@@H](CCCCN)C(=O)N[C@@H](CC(N)=O)C(=O)N1CCC[C@H]1C(=O)NCC(=O)N[C@@H](Cc1c[nH]c2ccccc12)C(=O)NCC(=O)N1CCC[C@H]1C(=O)NCC(N)=O [peptide 1] ([pGlu]IHYKNPGWGPG-NH2)
response of cells transfected with an empty vector (in words) [1]: Neither peptide 1 nor peptide 2 elicited any response
activation of ArCRZR (bioluminescence response, in words) (ArCRZR; CHO-K1/aequorin/Gα16 cells, concentrations 10^−4 M to 10^−14 M, peptide 1 over a similar concentration range as peptide 2): no effect
EC50 (ArGnRHR): 0.603 nM
activation of ArGnRHR (bioluminescence response, in words) (ArGnRHR): dose-dependent activation
activation of ArGnRHR (bioluminescence response, in words) (ArGnRHR; listed as Peptide 1): dose-dependent stimulation of a bioluminescence response
activation of ArGnRHR (bioluminescence response, in words) (ArGnRHR; listed as pQIHYKNPGWGPG-NH2): specifically activates an A. rubens GnRH-type receptor

CSCC[C@H](NC(=O)[C@@H](NC(=O)[C@H](Cc1ccccc1)NC(=O)[C@@H](NC(=O)[C@H](CC(N)=O)NC(=O)[C@@H](N)Cc1c[nH]cn1)[C@@H](C)O)[C@@H](C)O)C(=O)NCC(=O)NCC(=O)N[C@@H](CCC(N)=O)C(=O)N[C@@H](CC(N)=O)C(=O)N[C@@H](CCCNC(=N)N)C(=O)N[C@@H](Cc1c[nH]c2ccccc12)C(=O)N[C@@H](CCCCN)C(=O)N[C@@H](C)C(=O)NCC(N)=O [peptide 2] (H-HNTFTMGGQNRWKAG-NH2)
EC50 (ArCRZR): 115 nM

CRZ: other GnRH/CRZ-type peptide (Drosophila corazonin) (QTFQYSRGWTN; ends and bridges not checked; UniProt Q26377 20-30, looked up)
activation of ArCRZR by other GnRH/CRZ-type or starfish neuropeptides (in words) (ArCRZR; CHO-K1/aequorin/Gα16 cells): Neither receptor was activated
activation of ArGnRHR by other GnRH/CRZ-type or starfish neuropeptides (in words) (ArGnRHR): Neither receptor was activated

Drosophila AKH: other GnRH/CRZ-type peptide (Drosophila adipokinetic hormone) (QLTFSPDW; ends and bridges not checked; UniProt P61855 23-30, looked up)
activation of ArCRZR by other GnRH/CRZ-type or starfish neuropeptides (in words) (ArCRZR; CHO-K1/aequorin/Gα16 cells): Neither receptor was activated
activation of ArGnRHR by other GnRH/CRZ-type or starfish neuropeptides (in words) (ArGnRHR): Neither receptor was activated

NGFFYamide
activation of ArCRZR by other GnRH/CRZ-type or starfish neuropeptides (in words) (ArCRZR; CHO-K1/aequorin/Gα16 cells): Neither receptor was activated
activation of ArGnRHR by other GnRH/CRZ-type or starfish neuropeptides (in words) (ArGnRHR): Neither receptor was activated

pQILCARAFTYTHTW-NH2 [candidate neuropeptide in the cephalochordate Branchiostoma floridae]
activation of B. floridae GnRH-type receptors (in words) (GnRH-type receptors): neither of two GnRH-type receptors
activation of B. floridae CRZ-type receptors (in words) (CRZ-type receptor): activates one of two CRZ-type receptors
